Reference: publication PMC6811590, “Solution structure, glycan specificity and of phenol oxidase inhibitory activity of Anopheles C-type lectins CTL4 and CTLMA2” (Scientific Reports, 2019)

What was measured:
[1] = target: T1, CTL4/CTLMA2 (Anopheles gambiae, UniProt Q7Q7F7+Q7Q7F8); assay: SPR steady-state affinity (Biacore T200, protein immobilised on CM5); assay type: binding; conditions: PBS, 1 mM CaCl2, 1 mM MgCl2
T1 construct: gene 1276043; disulfide-bridged heterodimer, pFastbac-Dual, C-terminal 6xHis on CTL4 (178-183), secreted from T.ni cells, signal peptides removed; 35 kDa
T1 sequence (Q7Q7F7 25-177): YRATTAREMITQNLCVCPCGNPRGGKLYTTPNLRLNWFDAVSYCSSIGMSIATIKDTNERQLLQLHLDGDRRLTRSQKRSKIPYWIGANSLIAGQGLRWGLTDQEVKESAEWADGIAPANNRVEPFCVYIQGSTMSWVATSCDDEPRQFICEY
T1 sequence (Q7Q7F8 18-174): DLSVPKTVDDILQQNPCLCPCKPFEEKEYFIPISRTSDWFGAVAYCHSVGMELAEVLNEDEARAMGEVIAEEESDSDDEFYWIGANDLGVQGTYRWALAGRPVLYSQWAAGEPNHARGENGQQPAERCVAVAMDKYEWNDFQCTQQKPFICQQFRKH
Description: SPR steady-state affinity (Biacore T200, protein immobilised on CM5) on CTL4/CTLMA2

[2] = target: T2, CTLMA2 (Anopheles gambiae, UniProt Q7Q7F8); assay: as above; assay type: binding; conditions: PBS, 1 mM CaCl2, 1 mM MgCl2
T2 construct: gene 1276042; 6xHis-tagged CTLMA2 monomer, secreted from T.ni insect cells (baculovirus, synthetic gene)
T2 sequence (Q7Q7F8 18-174): T1 sequence (Q7Q7F8 18-174)
Description: SPR steady-state affinity (Biacore T200, protein immobilised on CM5) on CTLMA2

[3] = target: T3, CTL4 (Anopheles gambiae, UniProt Q7Q7F7); assay: as above; assay type: binding; conditions: PBS, 1 mM CaCl2, 1 mM MgCl2
T3 construct: gene 1276043; 6xHis-tagged CTL4 monomer, secreted from T.ni insect cells (baculovirus, synthetic gene)
T3 sequence (Q7Q7F7 25-177): T1 sequence (Q7Q7F7 25-177)
Description: SPR steady-state affinity (Biacore T200, protein immobilised on CM5) on CTL4

[4] = target: T1, CTL4/CTLMA2; assay: glycan array, anti-His fluorescence detection; assay type: binding; conditions: PBS, 1 mM CaCl2, 1 mM MgCl2; glycan immobilised through spacer
Description: glycan array, anti-His fluorescence detection on CTL4/CTLMA2

[5] = test system: An. gambiae CTL4 (AGAP005335) with C-terminal 6xHis tag, chain of the CTL4/CTLMA2 heterodimer; assay: non-reducing SDS-PAGE; purified CTL4/CTLMA2 on non-reducing and reducing SDS-PAGE; shows the disulfide-bridged species; conditions: other: non-reducing SDS-PAGE
[6] = target: T2, CTLMA2; assay: glycan array, anti-His fluorescence detection; assay type: binding; conditions: PBS, 1 mM CaCl2, 1 mM MgCl2; glycan immobilised through spacer
Description: glycan array, anti-His fluorescence detection on CTLMA2

Molecule | Kd [1] [µM] | Kd [2] [µM] | further results
CC(=O)N[C@H]1C(O)O[C@H](CO)[C@@H](O)[C@@H]1O (stereo partly drawn) [113,251, GlcNAc monosaccharide] | 21.9 ± 2.8 | 29.7 ± 7.91 | Kd [3]: 27.9 ± 11.4 µM
CC(=O)N[C@H]1[C@H](O[C@H]2[C@@H](O)[C@@H](CO)O[C@@H](O[C@H]3[C@H](O)[C@@H](O)C(O)O[C@@H]3CO)[C@@H]2O)O[C@H](CO)[C@@H](O[C@@H]2O[C@H](CO)[C@H](O)[C@H](O)[C@H]2O)[C@@H]1O (stereo partly drawn) [383,488, LNnT] | 17.6 ± 2.99 | – | –
O=P(O)(O)OC[C@H]1OC(O)[C@@H](O)[C@@H](O)[C@@H]1O (stereo partly drawn) [compound 47, 6-H2PO3Manα-sp3] | – | – | CTL4/CTLMA2 [4]: 1.32 fold
CC(=O)N[C@H]1C(O)O[C@H](CO)[C@@H](O[C@@H]2O[C@H](COS(=O)(=O)O)[C@H](O)[C@H](O)[C@H]2O)[C@@H]1O (stereo partly drawn) [compound 163] | – | – | Kd [3]: 0.292 ± 0.15 µM
CC(=O)N[C@H]1C(O)O[C@H](CO)[C@@H](O[C@@H]2O[C@@H](C)[C@@H](O)[C@@H](O)[C@@H]2O)[C@@H]1O[C@@H]1O[C@H](CO)[C@H](O)[C@H](OS(=O)(=O)O)[C@H]1O (stereo partly drawn) [compound 287, Sulfo-Lewis A] | 0.095 ± 0.02 | 0.106 ± 0.06 | –
CC(=O)N[C@H]1[C@@H](O[C@H]2[C@@H](O)[C@@H](CO)OC(O)[C@@H]2O[C@@H]2O[C@@H](C)[C@@H](O)[C@@H](O)[C@@H]2O)O[C@H](CO)[C@H](O)[C@@H]1O (stereo partly drawn) [compound 386, A blood group trisaccharide] | 5.56 ± 2.9 | 1.77 ± 0.19 | Kd [3]: 49.3 ± 12.2 µM
CC(=O)N[C@H]1[C@H]([C@H](O)[C@H](O)CO)O[C@@](O[C@H]2[C@@H](O)[C@@H](CO)O[C@@H](O[C@H]3[C@H](O[C@@H]4O[C@@H](C)[C@@H](O)[C@@H](O)[C@@H]4O)[C@@H](NC(C)=O)C(O)O[C@@H]3CO)[C@@H]2O)(C(=O)O)C[C@@H]1O (stereo partly drawn) [compound 428, Sialyl-Lewis X] | 3.81 ± 1 | 0.619 ± 0.1 | –
C[C@@H]1O[C@@H](O[C@H]2C(O)O[C@H](CO)[C@H](O)[C@@H]2O)[C@@H](O)[C@H](O)[C@@H]1O (stereo partly drawn) [compound 479, H disaccharide] | 26.6 ± 6.81 | 10.4 ± 3.26 | –
CC(=O)N[C@H]1[C@H](O[C@H]2[C@@H](O)[C@@H](CO)O[C@@H](O[C@H]3[C@H](O)[C@@H](O)C(O)O[C@@H]3CO)[C@@H]2O)O[C@H](CO)[C@@H](O)[C@@H]1O[C@@H]1O[C@H](CO)[C@H](O)[C@H](O)[C@H]1O (stereo partly drawn) [compound 536, LNT] | 8.22 ± 1.71 | – | –
An. gambiae CTLMA2 (AGAP005334), chain of the CTL4/CTLMA2 heterodimer | – | – | percent of the purified product that is heterodimer [5]: the purified product is overwhelmingly (>95%) heterodimer
GlcNAcβ1-4Galβ1-4GlcNAcβ-sp2 [compound 251] | – | – | CTLMA2 [6]: 1.04 fold
Neu5Acα2-3(GalNAcβ1-4)Galβ1-4Glcβ-sp2 [compound 421] | – | – | CTL4/CTLMA2 [4]: 1.94 fold
Neu5Acα2-3Galβ1-3GlcNAcβ1-3Galβ1-4Glcβ-sp4 [compound 536] | – | – | CTL4/CTLMA2 [4]: 2.13 fold
asialo-GM1 [18B] | – | – | Kd [3]: 15.4 ± 3.99 µM
